Patent US12466821B2 (Novartis AG, priority 2018, dated 2025)

Key:
[1] = target: human CMV DNA polymerase UL54 (Human cytomegalovirus (strain AD169) (HHV-5) (Human herpesvirus 5), UniProt P08546); assay: CMV polymerase biochemical assay (molecular beacon-based)
Procedure: (§1) Both human CMV DNA polymerase UL54 and human HSV DNA polymerase UL30 were produced as N-terminal MBP fusion of the full length, wild type recombinant proteins in order to enhance soluble expression in insect cell expression system. The proteins were expressed in sf9 insect cells via baculovirus transduction and cells were harvested after 48 hours. The soluble proteins were purified using the standard Ni-IMAC purification strategy via the N-terminal hexa-Histidine tag, followed by heparin affinity chromatography. Both of the final MBP fusion proteins were more than 90% pure and the yield of UL54 was up to 1.8 mg per liter culture while UL30 was up to 15 mg per liter culture. All purification steps were performed on ice, with buffers chilled on ice and FPLC fraction collectors set at 6° C. […] UL30 protein was stored in buffer containing 20 mM HEPES, pH7.0, 420 mM NaCl, 20% glycerol, 6 mM Imidazole, and 0.8 mM DTT at−80° C.
(§2) DNA polymerase activity was measured using a molecular beacon-based assay, as described in Ma et. al.
(§3) 100 pM CMV polymerase or 625 pM HSV polymerase was added to a buffer containing 20 mM Tris, pH=7.5, 100 mM NaCl, 10 mM MgCl2, 0.01% Tween-20, 0.5 mM EDTA, 10% Sucrose and 1 mM DTT. The inhibitor was pre-incubated with the polymerase for 30 minutes at room temperature. Reactions were initiated by the addition of a mixture containing 1.25 uM dATP, 1.25 uM dCTP, 1.25 uM dTTP, 1.25 uM dGTP, 200 nM Primer B (5′-GAC GGG AAG-3′5′-GAC GGG AAG-3′) and 100 nM molecular beacon (5′-5,6-FAM-CCTCTCCGTGTCTTGTACTTCCCGTCAGAGAGG-BHQ1-3′). For human CMV polymerase the reactions were incubated for 60 minutes at room temperature. For HSV polymerase the reactions were incubated for 20 minutes at room temperature. The reactions were then read on a Perkin-Elmer EnVision 2101 reader (fluorescence) using an excitation of 480 nm and emission of 535 nm. 1050s were determined using an internal Novartis software (Helios).
as §3, with “nm.” for “nm. 1050s were determined using an internal Novartis software (Helios).”

[2] = target: human HSV DNA polymerase UL30 (Human herpesvirus 1 (strain 17) (HHV-1) (Human herpes simplex virus 1), UniProt P04293); assay: HSV polymerase biochemical assay (molecular beacon-based)
Procedure: as §1, §2, §3
as §3, with “nm.” for “nm. 1050s were determined using an internal Novartis software (Helios).”

[3] = tested on: Luciferase-encoding HCMV, AD169 strain; assay: CMV Luciferase assay (cellular herpesvirus replication); type: cell-based; conditions: Human betaherpesvirus 5, AD169, read-out: CMV-Luc Cellular EC50
Procedure: For all viral assays, 10 mM DMSO stock compound solutions were serially diluted in DMSO at 3.16 fold dilutions in 96-well clear round bottom plates. Compounds were then diluted in assay media at 1:20 and subsequently 10 μL of these dilutions were added to cells for final compound concentrations ranging either from 0.0159 μM to 50 μM in 0.5% DMSO/assay media, or from 0.00318 to 10 μM in 0.5% DMSO/assay media.
The assay uses a Luciferase-encoding HCMV. Luciferase is expressed under the control of a late viral gene (pp28) promoter in the AD169 strain, so that expression of the reporter is dependent on viral DNA replication. Compounds that affect any stage from viral entry to DNA replication result in a change in luciferase levels.
Viral replication in the presence or absence of compounds was measured by luciferase activity according to the following procedure: Neo-natal normal human dermal fibroblast cells (NN-NHDF, from ATCC cat #201-010) were seeded at 9,000 cells/well in 96-well white solid bottom plate at 80 uL/well in assay media: 2% FBS, 4 mM GlutaMax® (Invitrogen cat #35050) in DMEM/high glucose/no glutamine/no phenol red media (Invitrogen cat #31053). After 2 hrs at 37° C., 10 uL of compound diluted in assay media or 5% DMSO (final 0.5% DMSO/well) was added and the plates returned to 37° C. One hour later, 10 uL of virus diluted in assay media was added at a final Multiplicity of infection (MOI) of 1. Plates were incubated at 37° C. for 72 hrs. At 72 hours post-infection (hpi), plates were equilibrated to room temperature. After 25 min, 100 uL Renilla-Glo® Luciferase Assay Reagent (Promega cat # E2750) was added to each well and incubated for 10 min. Plates were covered to protect from light. Luminescence was measured on the PHERAstar FS®.
The following controls were included in the data analysis: No virus, no compound (0.5% DMSO)=IC (maximal inhibitory control); Virus, no compound (0.5% DMSO)=NC (neutral control). Data were analyzed using an internal Novartis software (Helios). The means of the controls (NC, IC) were used to normalize the results to a % scale using the formula: % Control=100−(100*(Sample value−NC)/(IC−NC)).
For each compound, the software derived an EC50 using a 4-parameter logistical model.

SMILES | IC50 [1] | IC50 [2] | EC50 [3]
O=C(NCc1ccc(F)c(F)c1)c1ccc2n(c1=O)CCN(CC1(S(=O)(=O)C3CC3)CC1)C2=O [Example 3-3] | 7.9 nM | 149 nM | 64 nM
COc1cc(CNC(=O)c2ccc3n(c2=O)CCN(CC2(S(=O)(=O)C4CC4)CC2)C3=O)ccc1Cl [Example 3-5] | 2 nM | 117 nM | 211 nM
CC(CCO)S(=O)(=O)C1(CN2CCn3c(ccc(C(=O)NCc4ccc(C#N)cc4)c3=O)C2=O)CC1 (stereo not drawn) [Example 5, N-(4-cyanobenzyl)-2-((1-((4-hydroxybutan-2-yl)sulfonyl)cyclopropyl)methyl)-1,6-dioxo-2,3,4,6-tetrahydro-1H-pyrido[1,2-a]pyrazine-7-carboxamide] | 2.2 nM | 105 nM | 470 nM
O=C(NCc1ccc(Cl)cc1)c1ccc2n(c1=O)CCN(CC1(S(=O)(=O)C3(CO)CC3)CC1)C2=O [Example 10, N-(4-chlorobenzyl)-2-((1-((1-(hydroxymethyl)cyclopropyl)sulfonyl)cyclopropyl)methyl)-1,6-dioxo-2,3,4,6-tetrahydro-1H-pyrido[1,2-a]pyrazine-7-carboxamide] | 0.3 nM | 18.8 nM | 4.9 nM
N#Cc1ccc(CNC(=O)c2ccc3n(c2=O)CCN(CC2(S(=O)(=O)C4(CO)CC4)CC2)C3=O)cc1 [Example 11] | 0.4 nM | 24.3 nM | 26.7 nM
N#Cc1ccc(CNC(=O)c2ccc3n(c2=O)CCN(CC2(S(=O)(=O)C4(CO)CC4)CC2)C3=O)cc1F [Example 12] | 0.4 nM | 23.5 nM | 19.7 nM
N#Cc1ccc(CNC(=O)c2ccc3n(c2=O)CCN(CC2(S(=O)(=O)C4(CF)CC4)CC2)C3=O)cc1 [Example 13] | 0.4 nM | 28.3 nM | 19.3 nM
N#Cc1ccc(CNC(=O)c2ccc3n(c2=O)CCN(CC2(S(=O)(=O)C4(CF)CC4)CC2)C3=O)cc1F [Example 14] | 0.3 nM | 27.9 nM | 10 nM
COCC1(S(=O)(=O)C2(CN3CCn4c(ccc(C(=O)NCc5ccc(C#N)cc5)c4=O)C3=O)CC2)CC1 [Example 15] | 0.7 nM | 26 nM | 30.2 nM
N#Cc1ccc(CNC(=O)c2ccc3n(c2=O)CCN(CC2(S(=O)(=O)C4CNC4)CC2)C3=O)cc1F [Example 16, 2-((1-(azetidin-3-ylsulfonyl)cyclopropyl)methyl)-N-(4-cyano-3-fluorobenzyl)-1,6-dioxo-2,3,4,6-tetrahydro-1H-pyrido[1,2-a]pyrazine-7-carboxamide] | 6.1 nM | 285 nM | 3420 nM
CN1CC(S(=O)(=O)C2(CN3CCn4c(ccc(C(=O)NCc5ccc(C#N)c(F)c5)c4=O)C3=O)CC2)C1 [Example 17, N-(4-cyano-3-fluorobenzyl)-2-((1-((1-methylazetidin-3-yl)sulfonyl)cyclopropyl)methyl)-1,6-dioxo-2,3,4,6-tetrahydro-1H-pyrido[1,2-a]pyrazine-7-carboxamide] | 14.7 nM | 380 nM | 905 nM
N#Cc1ccc(CNC(=O)c2ccc3n(c2=O)CCN(CC2(S(=O)(=O)C4CNC4)CC2)C3=O)cc1 [Example 18] | 4.2 nM | 161 nM | 3000 nM
O=C(NCc1ccc(Cl)cc1)c1ccc2n(c1=O)CCN(CC1(S(=O)(=O)C3CNC3)CC1)C2=O [Example 19] | 3.9 nM | 149 nM | 538 nM
CN1CC(S(=O)(=O)C2(CN3CCn4c(ccc(C(=O)NCc5ccc(C#N)cc5)c4=O)C3=O)CC2)C1 [Example 20] | 13.2 nM | 319 nM | 1500 nM
N#Cc1ccc(CNC(=O)c2ccc3n(c2=O)CCN(CC2(S(=O)(=O)C4CCCC4)CC2)C3=O)cc1F [Example 21] | 0.8 nM | 35.4 nM | 58 nM
N#Cc1ccc(CNC(=O)c2ccc3n(c2=O)CCN(CC2(S(=O)(=O)C4CCCC4)CC2)C3=O)cc1 [Example 22] | 1.9 nM | 56.3 nM | 88.8 nM
N#Cc1ccc(CNC(=O)c2ccc3n(c2=O)CCN(CC2(S(=O)(=O)CCCO)CC2)C3=O)cc1 [Example 24] | 4.7 nM | 168 nM | 832 nM
O=C(NCc1ccc(Cl)cc1)c1ccc2n(c1=O)CCN(CC1(S(=O)(=O)CCCO)CC1)C2=O [Example 25] | 2.8 nM | 80.8 nM | 88.9 nM
CC(C)(C)S(=O)(=O)C1(CN2CCn3c(ccc(C(=O)NCc4ccc(C#N)c(F)c4)c3=O)C2=O)CC1 [Example 26] | 0.6 nM | 45.5 nM | 8.9 nM
CC(C)(C)S(=O)(=O)C1(CN2CCn3c(ccc(C(=O)NCc4ccc(C#N)cc4)c3=O)C2=O)CC1 [Example 27] | 0.3 nM | 25.2 nM | 6.8 nM
N#Cc1ccc(CNC(=O)c2ccc3n(c2=O)CCN(CC2(S(=O)(=O)C4COC4)CC2)C3=O)cc1 [Example 28] | 2.7 nM | 68.7 nM | 116 nM
N#Cc1ccc(CNC(=O)c2ccc3n(c2=O)CCN(CC2(S(=O)(=O)C4COC4)CC2)C3=O)cc1F [Example 29] | 1.8 nM | 63.5 nM | 86.4 nM
O=C(NCc1ccc(Cl)cc1)c1ccc2n(c1=O)CCN(CC1(S(=O)(=O)C3COC3)CC1)C2=O [Example 30] | 1.5 nM | 38 nM | 36.3 nM
CC(C)S(=O)(=O)C1(CN2CCn3c(ccc(C(=O)NCc4ccc(Cl)cc4)c3=O)C2=O)CC1 [Example 31] | 0.9 nM | 30.6 nM | 12.4 nM
CC(C)S(=O)(=O)C1(CN2CCn3c(ccc(C(=O)NCc4ccc(C#N)cc4)c3=O)C2=O)CC1 [Example 32] | 1.6 nM | 49.5 nM | 52 nM
CC(C)S(=O)(=O)C1(CN2CCn3c(ccc(C(=O)NCc4ccc(C#N)c(F)c4)c3=O)C2=O)CC1 [Example 33] | 1 nM | 48.2 nM | 33.1 nM
CCS(=O)(=O)C1(CN2CCn3c(ccc(C(=O)NCc4ccc(C#N)c(F)c4)c3=O)C2=O)CC1 [Example 34] | 1.6 nM | 69.5 nM | 41.2 nM
